Measurements from patent publication US11234982B2, “Methods for treating ocular surface pain” (NOVARTIS AG, priority 2019, dated 2022).
Read-outs that look alike come from different tables or passages of the source.

Experiments:
healthy volunteers = assay: First in human study Part 1: SAD, incidence of adverse events; type: in vivo; details: N = 6
Method: This example describes a first-in-human study of compound I conducted in healthy volunteers. A total of 54 subjects were administered to study medication. Part 1 of the first in human study administered single ascending doses of 0.15%, 1.5%, 2.5% w/v (1 drop) of compound I in an eye drop.
Safety assessments: Safety assessments consisted of collecting all adverse events (AEs), serious adverse events (SAEs), including systemic and ocular adverse events, along with their severity and relationship to study drug. Systemic safety assessments included regular monitoring of hematology, blood chemistry and urinalysis performed at study center and regular assessments of physical examination, vital signs (systolic and diastolic blood pressure, pulse rate, and body temperature), ECG, pregnancy and assessments of fertility and hand immersion test at 49° C. during MAD part. Ocular safety assessments included early treatment diabetic retinopathy study (ETDRS) visual acuity, intraocular pressure, slit-lamp biomicroscopy, corneal staining and dilated fundus exam.
Inclusion Criteria: • Written informed consent was obtained before any assessment was performed. • Healthy male and female subjects aged 18 to 50 years (inclusive), and in good health as determined by past medical history, physical examination, vital signs, ECG, and laboratory tests at Screening. • At Screening, and Baseline, vital signs (systolic and diastolic blood pressure (BP) and pulse rate) were assessed in the sitting position after the subject had rested for at least 3 minutes and again after 3 minutes in the standing position. […] BMI=Body weight (kg)/[Height (m)]^2 • Subjects who were able to communicate well with the Investigator, to understand and comply with the requirements of the study. • For Part 3, subjects Baseline levels of eye sensitivity were to be in the range of 50 to 60 mm (inclusive) as measured by the Cochet-Bonnet esthesiometer.
History of any chronic eye disease other than refractive error, incipient cataract, strabismic amblyopia, or anisometropic amblyopia. Subjects with a history of acute eye disease (such as infection, corneal abrasion or allergy) within the past 6 months from Screening were eligible if the disease was not active. • Any currently active ocular condition that required use of topical eye drops. • Subjects using continuous positive airway pressure or other sleep apnea devices.

[1] = PRK study: plasma pharmacokinetics of compound I; type: in vivo, human; details: for Tmax: read-out: Tmax, Min, Max
Method: Pharmacokinetic (PK) samples were collected at the time points defined in the visit schedule supra, with PK blood collection windows shown in Table 9.
All blood samples (3 mL) were taken from the arm by either direct venipuncture or an indwelling catheter inserted in a forearm vein. After each tube of blood was drawn, it was immediately inverted gently 8-10 times to ensure the mixing of tube contents with anticoagulant (3 mL K2 EDTA). Prolonged sample contact with the rubber stopper was avoided and the tubes were placed upright in a test tube rack surrounded by wet ice until centrifugation.
Within 30 minutes, the sample was centrifuged at about 5° C. for 10 minutes at approximately 2000 G (or the sample was placed on ice and centrifuged at room temperature). Immediately after centrifugation, the whole supernatant (approx. 1.5 mL) was transferred in the first 1.8 mL NUNC 2D barcoded cryovial. After mixing the plasma thoroughly, half of the plasma was transferred from the first cryovial to the second cryovial and the caps were secured. Appropriate PK cryolabels were attached to each cryovial and the labels were secured with clear tape. The cryovials were frozen immediately over dry ice then, kept frozen at ≤−20° C. until shipment to the central lab. The vials were shipped in biweekly batches.
Compound I was quantified in plasma using a validated LC-MS/MS method; the lower limit of quantification (LLOQ) was 0.05 ng/mL. Concentrations were expressed in ng per mL units. When feasible, bandage contact lenses (BCL) exposed to study drug were collected and analyzed for residual drug exposure after treatment (LLOQ: 5.00 ng/mL in 0.55 mL of extraction fluid, or 2.75 ng/BCL). Concentrations below the LLOQ were reported as “zero” and missing data were labeled as such.
The following PK parameters were determined as relevant using the actual recorded sampling times and non-compartmental method with Phoenix™ WinNonlin® (Version 6.4): Cmax, Tmax, AUClast (calculated), Clast and Tlast from the plasma concentration-time data. Pre-dose concentrations were determined by inspection at nominal 0, 24 and 72 hours. The linear trapezoidal rule was used for AUClast calculation. No PK parameters were calculated from the bandage contact lenses compound I concentration data.

[2] = across 4 days of repeated QID dosing
[3] = plasma, Day 1 (first dose), 2.5% topical ocular
[4] = plasma, Day 1 (first dose), 2.5% topical ocular, N 34
[5] = plasma, Day 4 (13th dose), 2.5% four times daily

## CC(C)c1nc2cc(O)ccc2c(=O)n1-c1ccc(C#N)cc1 [Compound I, 4-(7-hydroxy-2-isopropyl-4-oxo-4H-quinazolin-3-yl)-benzonitrile]
Healthy volunteers; 0.15% 1 drop
  AEs leading to of study: nE: 0
  AEs leading to of study: nS (%): 0 (0.0) nS (%)
  AEs of Mild severity: nE: 3
  AEs of Mild severity: nS (%): 1 (16.7) nS (%)
  AEs of Moderate severity: nE: 0
  AEs of Moderate severity: nS (%): 0 (0.0) nS (%)
  AEs, Subjects with AEs: nE (AE events): 3
  AEs, Subjects with AEs: nS (%) (subjects with at least one AE): 1 (16.7) nS (%)
  Serious AEs: nE: 0
  Serious AEs: nS (%): 0 (0.0) nS (%)
  Study drug-related AEs: nE: 3
  Study drug-related AEs: nS (%): 1 (16.7) nS (%)
  Study-drug related AEs leading to discontinuation of study: nE: 0
  Study-drug related AEs leading to discontinuation of study: nS (%): 0 (0.0) nS (%)
Healthy volunteers; 1.5% 1 drop
  AEs leading to of study: nE: 0
  AEs leading to of study: nS (%): 0 (0.0) nS (%)
  AEs of Mild severity: nE: 3
  AEs of Mild severity: nS (%): 2 (33.3) nS (%)
  AEs of Moderate severity: nE: 0
  AEs of Moderate severity: nS (%): 0 (0.0) nS (%)
  AEs, Subjects with AEs: nE (AE events): 3
  AEs, Subjects with AEs: nS (%) (subjects with at least one AE): 2 (33.3) nS (%)
  Serious AEs: nE: 0
  Serious AEs: nS (%): 0 (0.0) nS (%)
  Study drug-related AEs: nE: 3
  Study drug-related AEs: nS (%): 2 (33.3) nS (%)
  Study-drug related AEs leading to discontinuation of study: nE: 0
  Study-drug related AEs leading to discontinuation of study: nS (%): 0 (0.0) nS (%)
Healthy volunteers; 2.5% 1 drop
  AEs leading to of study: nE: 0
  AEs leading to of study: nS (%): 0 (0.0) nS (%)
  AEs of Mild severity: nE: 0
  AEs of Mild severity: nS (%): 0 (0.0) nS (%)
  AEs of Moderate severity: nE: 0
  AEs of Moderate severity: nS (%): 0 (0.0) nS (%)
  AEs, Subjects with AEs: nE (AE events): 0
  AEs, Subjects with AEs: nS (%) (subjects with at least one AE): 0 (0.0) nS (%)
  Serious AEs: nE: 0
  Serious AEs: nS (%): 0 (0.0) nS (%)
  Study drug-related AEs: nE: 0
  Study drug-related AEs: nS (%): 0 (0.0) nS (%)
  Study-drug related AEs leading to discontinuation of study: nE: 0
  Study-drug related AEs leading to discontinuation of study: nS (%): 0 (0.0) nS (%)
[1]; 2.5% 4 times daily
  Mean AUClast increase over the 4 days (Day 4 vs Day 1): 6.9 fold
  Mean Cmax after 13th dose on Day 4 relative to first dose on Day 1: 5.3 fold
[1]; [2]
  AUClast, range: 0.261 to 14.5 ng·h/mL
  Observed Cmax, range: 0.195 to 7.56 ng/mL
[1]; after either single (first dose) or repeated 4 times daily topical ocular administration
  Median plasma Tmax: approximately 0.5 hours
[1]; human, plasma, topical, 2.5 % (four times daily), across 4 days of repeated QID dosing, read-out: Observed Cmax, range
  Cmax: 0.195 to 7.56 ng/mL
[1]; human, topical or ocular, plasma, Day 1 (first dose), 2.5% topical ocular
  Tmax: 10 to 120 min
[1]; human, topical, plasma, Day 4 (13th dose), 2.5% four times daily
  Tmax: 0 to 125 min
[1]; [3]
  AUClast, Median: 0.569 ng·h/mL
  Cmax, Median: 0.375 ng/mL
  Tmax, Median: 27.5 min
[1]; [4]
  AUClast, Mean (SD): 0.638 ng·h/mL
  Cmax, Mean (SD): 0.454 ng/mL
[1]; [5]
  AUClast, Median: 3.42 ng·h/mL
  Cmax, Median: 2.07 ng/mL
  Tmax, Median: 28 min
[1]; plasma, Day 4 (13th dose), 2.5% four times daily, N 31
  AUClast, Mean (SD): 4.38 ng·h/mL
[1]; plasma, Day 4 (13th dose), 2.5% four times daily, N 33
  Cmax, Mean (SD): 2.40 ng/mL
[1]; prior to the 5th dose on Day 2 (24 hr post 1st dose)
  Trough mean plasma concentration (end of 6-hour dose interval): 1.25 ng/mL
[1]; prior to the 13th dose on Day 4 (72 hr post 1st dose)
  Trough mean plasma concentration (end of 6-hour dose interval): 1.99 ng/mL
